{"source": "ChEMBL document CHEMBL6114946", "about": "“Development and characterization of pyridyl carboxamides as potent and highly selective Nav1.8 inhibitors” (Bioorg Med Chem Lett, 2025)", "key": {"[1]": {"biological_target": "T1, Sodium channel protein type 10 subunit alpha (Homo sapiens, UniProt Q9Y5Y9)", "experiment": "Inhibition of Nav1.8 (unknown origin) at 10 uM by Ionflux high-throughput automated patch method"}, "[2]": {"biological_target": "T1, Sodium channel protein type 10 subunit alpha", "experiment": "Inhibition of Nav1.8 (unknown origin) over expressed in HEK cells assessed as reduction in deltamethrin-stimulated channel activation by FLIPR assay", "assay_type": "cell-based"}, "[3]": {"experiment": "Kinetic solubility of the compound in pH 7.4 phosphate buffered saline measured after 2 hrs by LC/MS analysis", "assay_type": "physicochemical", "settings": "read-out: Kinetic_solubility"}, "[4]": {"biological_target": "T1, Sodium channel protein type 10 subunit alpha", "experiment": "Inhibition of human Nav1.8 with resting membrane potential at half inactivated state by PatchXpress high-throughput electrophysiology method"}, "[5]": {"experiment": "Genotoxicity in Salmonella typhimurium by Ames test", "assay_type": "toxicity", "settings": "salmonella enterica subsp. enterica serovar typhimurium"}}, "note": "Activity calls are given as the source filed them. The rule behind the calls is not given here.", "data": [{"smiles": "COc1cc(F)ccc1Oc1ncc(C(F)(F)F)cc1C(=O)Nc1cccnc1", "values": [{"measurement": "inhibition", "setting": "[1]", "value": "Active"}, {"measurement": "IC50", "setting": "[2]", "value": 2.2, "unit": "µM"}]}, {"smiles": "CS(=O)(=O)c1cccc(NC(=O)c2cc(C(F)(F)F)cnc2Oc2cc(F)cc(F)c2)c1", "values": [{"measurement": "inhibition", "setting": "[1]", "value": "Active"}, {"measurement": "IC50", "setting": "[2]", "value": 1.3, "unit": "µM"}]}, {"smiles": "CS(=O)(=O)c1cccc(NC(=O)c2cc(C(F)(F)F)cnc2Oc2ccc(F)cc2F)c1", "values": [{"measurement": "inhibition", "setting": "[1]", "value": "Active"}, {"measurement": "solubility kinetic at 2 h", "setting": "[3]", "value": 0.0003, "unit": "mg/mL"}, {"measurement": "IC50", "setting": "[2]", "value": 0.087, "unit": "µM"}]}, {"smiles": "COc1cc(F)ccc1Oc1ncc(C(F)(F)F)cc1C(=O)Nc1ccc[n+]([O-])c1", "values": [{"measurement": "inhibition", "setting": "[1]", "value": "Active"}, {"measurement": "solubility kinetic at 2 h", "setting": "[3]", "value": 0.128, "unit": "mg/mL"}, {"measurement": "IC50", "setting": "[2]", "value": 1.1, "unit": "µM"}]}, {"smiles": "COc1cc(F)ccc1Oc1cc(C(F)(F)F)ncc1C(=O)Nc1cccc(S(C)(=O)=O)c1", "values": [{"measurement": "inhibition", "setting": "[1]", "value": "Active"}, {"measurement": "IC50", "setting": "[4]", "value": 0.032, "unit": "µM"}, {"measurement": "IC50", "setting": "[2]", "value": 0.092, "unit": "µM"}]}, {"smiles": "COc1cc(F)ccc1Oc1ncc(C(F)(F)F)cc1C(=O)NCCN(C)C", "values": [{"measurement": "inhibition", "setting": "[1]", "value": "inactive"}, {"measurement": "IC50", "setting": "[4]", "value": "> 10", "unit": "µM"}]}, {"smiles": "CS(=O)(=O)c1cccc(NC(=O)c2cc(C(F)(F)F)cnc2Oc2ccc(OC(F)(F)F)cc2Cl)c1", "values": [{"measurement": "inhibition", "setting": "[1]", "value": "Active"}, {"measurement": "solubility kinetic at 2 h", "setting": "[3]", "value": 0.0015, "unit": "mg/mL"}, {"measurement": "IC50", "setting": "[4]", "value": 0.015, "unit": "µM"}, {"measurement": "IC50", "setting": "[2]", "value": 0.024, "unit": "µM"}]}, {"smiles": "Nc1ccc[n+]([O-])c1", "values": [{"measurement": "Activity", "setting": "[5]", "value": "Non-toxic"}]}, {"smiles": "CC(C)Oc1ncc(C(F)(F)F)cc1C(=O)Nc1cccc(S(C)(=O)=O)c1", "values": [{"measurement": "inhibition", "setting": "[1]", "value": "inactive"}, {"measurement": "IC50", "setting": "[4]", "value": "> 10", "unit": "µM"}]}, {"smiles": "COc1cc(F)ccc1Oc1ncc(C(F)(F)F)cc1C(=O)Nc1cccc(P(C)(C)=O)c1", "values": [{"measurement": "inhibition", "setting": "[1]", "value": "Active"}, {"measurement": "IC50", "setting": "[2]", "value": 3, "unit": "µM"}]}, {"smiles": "COc1cc(F)ccc1Oc1nc2ccccc2nc1C(=O)Nc1cccc(S(C)(=O)=O)c1", "values": [{"measurement": "inhibition", "setting": "[1]", "value": "Active"}, {"measurement": "IC50", "setting": "[4]", "value": 0.036, "unit": "µM"}, {"measurement": "IC50", "setting": "[2]", "value": 0.033, "unit": "µM"}]}, {"smiles": "COc1cc(F)ccc1Oc1ccncc1C(=O)Nc1cccc(S(C)(=O)=O)c1", "values": [{"measurement": "inhibition", "setting": "[1]", "value": "inactive"}, {"measurement": "IC50", "setting": "[4]", "value": "> 10", "unit": "µM"}]}, {"smiles": "CS(=O)(=O)c1cccc(NC(=O)c2cc(C(F)(F)F)cnc2Oc2c(F)cccc2F)c1", "values": [{"measurement": "inhibition", "setting": "[1]", "value": "Active"}, {"measurement": "IC50", "setting": "[2]", "value": "> 5", "unit": "µM"}]}, {"smiles": "CS(=O)(=O)c1cccc(NC(=O)c2cc(C(F)(F)F)cnc2Oc2ccc(F)cc2Cl)c1", "values": [{"measurement": "inhibition", "setting": "[1]", "value": "Active"}, {"measurement": "IC50", "setting": "[2]", "value": 0.251, "unit": "µM"}]}, {"smiles": "COc1cc(F)ccc1Oc1ncc(C(F)(F)F)cc1C(=O)Nc1ccncc1", "values": [{"measurement": "inhibition", "setting": "[1]", "value": "Active"}, {"measurement": "solubility kinetic at 2 h", "setting": "[3]", "value": 0.019, "unit": "mg/mL"}, {"measurement": "IC50", "setting": "[2]", "value": 0.56, "unit": "µM"}]}, {"smiles": "COc1cc(F)ccc1Oc1nc(C(F)(F)F)ccc1C(=O)Nc1cccc(S(C)(=O)=O)c1", "values": [{"measurement": "inhibition", "setting": "[1]", "value": "Active"}, {"measurement": "IC50", "setting": "[2]", "value": 0.102, "unit": "µM"}]}, {"smiles": "COCCCNC(=O)c1cc(C(F)(F)F)cnc1Oc1ccc(F)cc1OC", "values": [{"measurement": "inhibition", "setting": "[1]", "value": "inactive"}, {"measurement": "IC50", "setting": "[4]", "value": "> 10", "unit": "µM"}]}, {"smiles": "COc1cc(F)ccc1Oc1ncc(C(F)(F)F)cc1C(=O)Nc1cccc(S(C)(=N)=O)c1", "note": "(centres undefined)", "values": [{"measurement": "inhibition", "setting": "[1]", "value": "Active"}, {"measurement": "solubility kinetic at 2 h", "setting": "[3]", "value": 0.048, "unit": "mg/mL"}, {"measurement": "IC50", "setting": "[4]", "value": 0.023, "unit": "µM"}, {"measurement": "IC50", "setting": "[2]", "value": 0.022, "unit": "µM"}]}]}
